The values that follow come from patent publication US6747052B2, “Substituted indole-2-carboxylic acid benzylidene-hydrazides and analogs as activators of caspases and inducers of apoptosis and the use thereof” (Cytovia, Inc., priority 2000, dated 2004).

Like-named read-outs stand apart in the source and are kept apart here.

Test [1] has as its system T-47D. The experiment in a line: Caspase cascade activation (N-(Ac-DEVD)-N'-ethoxycarbonyl-R110 fluorogenic substrate) in T-47D cells. Type of test: cell-based, Human. As to conditions: 24 h incubation with compound; for Caspase activity Ratio (net RFU of test compound to control): 3 h substrate reading; for EC50: Homo sapiens, T47D. On the procedure: (§1) Human breast cancer cell lines T-47D and ZR-75-1 were grown according to media component mixtures designated by American Type Culture Collection +10% FCS (Invitrogen Corporation, Life Technologies division), in a 5% CO2-95% humidity incubator at 37° C. T-47D and ZR-75-1 cells were maintained at a cell density between 30 and 80% confluency at a cell density of 0.1 to 0.6×10^6 cells/ml. Cells were harvested at 600×g and resuspended at 0.65×10^6 cells/ml into appropriate media +10% FCS. An aliquot of 45 μl of cells was added to a well of a 96-well microtiter plate containing 5 μl of a 10% DMSO in RPMI-1640 media solution containing 0.16 to 100 μM of 5-chloro-3-methyl-indole-2-carboxylic acid (4-nitrobenzylidene)-hydrazide (Compound A) or other test compound (0.016 to 10 μM final). An aliquot of 45 μl of cells was added to a well of a 96-well microtiter plate containing 5 μl of a 10% DMSO in RPMI-1640 media solution without test compound as the control sample. The samples were mixed by agitation and then incubated at 37° C. for 24 h in a 5% CO2-95% humidity incubator. After incubation, the samples were removed from the incubator and 50 μl of a solution containing 20 μM of N-(Ac-DEVD)-N′-ethoxycarbonyl-R110 fluorogenic substrate (Cytovia, Inc.; WO99/18856), 20% sucrose (Sigma), 20 mM DTT (Sigma), 200 mM NaCl (Sigma), 40 mM Na PIPES buffer pH 7.2 (Sigma), and 500 μg/ml lysolecithin (Calbiochem) was added. The samples were mixed by agitation and incubated at room temperature. Using a fluorescent plate reader (Model 1420 Wallac Instruments), an initial reading (T=0) was made approximately 1-2 min after addition of the substrate solution, employing excitation at 485 nm and emission at 530 nm, to determine the background fluorescence of the control sample. After the 3 h incubation, the samples were read for fluorescence as above (T=3 h).
(§2) The Relative Fluorescence Unit values (RFU) were used to calculate the sample readings as follows: RFU(T=3h)−Control RFU(T=0)=Net RFU(T=3h)
(§3) The activity of caspase cascade activation was determined by the ratio of the net RFU value for 5-chloro-3-methyl-indole-2-carboxylic acid (4-nitrobenzylidene)-hydrazide (Compound A) or other test compound to that of control samples. The EC50 (nM) was determined by a sigmoidal dose-response calculation (Prism 2.0, GraphPad Software Inc.).

For another test, the system named is ZR-75-1. The test can be described thus: Caspase cascade activation (N-(Ac-DEVD)-N'-ethoxycarbonyl-R110 fluorogenic substrate) in ZR-75-1 cells. Type of test: cell-based, Human. The following applies: ZR-75-1, 24 h incubation with compound; for EC50: Homo sapiens; for Caspase activity Ratio (net RFU of test compound to control): 3 h substrate reading. On the procedure:
as §1, §2, §3

The subject of a further test is HeLa cells. The test can be described thus: Clonogenic survival of HeLa cells. As to conditions: for IC50: Homo sapiens. Type of test: cell-based. Here is the method: HeLa cells were grown according to media component mixtures designated by American Type Culture Collection +10% FCS (Invitrogen Corporation, Life Technologies division), in a 5% CO2-95% humidity incubator at 37° C. In a well of a 96 well plate, 30,000 cells were seeded and treated with testing compound at the indicated concentrations for 48 hr in a 5% CO2-95% humidity incubator at 37° C. Control wells were treated with the same amount of solvent (DMSO) as the compound samples. After the indicated treatment time, the supernatant was removed to a sterile culture tube and the wells washed with phosphate buffered saline, and the adherent cells trypsinized for 5 min. The trypsinzed cells were added to the culture supernatant, cells were collected (1,200 rpm, 10 min), washed with phosphate buffered saline, and resupended in fresh media. The cells were counted for trypan blue negative cells, and the cells diluted with fresh media to 1,000 cells/ml. To a well of a 24-well plate, 0.1 ml of the cell suspension was added along with 1 ml of fresh media (cell suspensions were passed through a 22G needle several times just before plating to form single cell suspensions). Plates are incubated in a 5% CO2-95% humidity incubator at 37° C. for 5-7 days. Colonies are counted when the sizes reached greater than 50 cells per colony. Cells are washed with phosphate buffered saline, fixed with 100% methanol for 15 min, and then stained with 0.5% gentian violet for 15 min. Colonies are rinsed with water and the colonies counted and the fraction surviving expressed as the percentage of the number of control colonies.

Test [2] has as its system T-47D. The test can be described thus: Inhibition of cell proliferation (GI50, CellTiter 96 AQueous One) in T-47D cells. Type of test: cell-based. As to conditions: Homo sapiens, T47D, 48 h, read-out: GI50 (dose for 50% inhibition of cell proliferation). On the procedure: T-47D and ZR-75-1 cells were grown and harvested as in Example 1. An aliquot of 90 μl of cells (2.2×10^4 cells/ml) was added to a well of a 96-well microtiter plate containing 10 μl of a 10% DMSO in RPMI-1640 media solution containing 1 nM to 100 μM of 5-chloro-3-methyl-indole-2-carboxylic acid (4-nitrobenzylidene)-hydrazide (Compound A) or 5-chloro-3-phenyl-indole-2-carboxylic acid (4-nitrobenzylidene)-hydrazide (Compound B) (0.1 nM to 10 μM final). An aliquot of 90 μl of cells was added to a well of a 96-well microtiter plate containing 10 μl of a 10% DMSO in RPMI-1640 media solution without compound as the control sample for maximal cell proliferation (AMax). The samples were mixed by agitation and then incubated at 37° C. for 48 h in a 5% CO2-95% humidity incubator. […] Using an absorbance plate reader (Model 1420 Wallac Instruments), an initial reading (T=0) was made approximately 1-2 min after addition of the solution, employing absorbance at 490 nm. This determines the possible background absorbance of the test compounds. No absorbance for 5-chloro-3-methyl-indole-2-carboxylic acid (4-nitrobenzylidene)-hydrazide or 5-chloro-3-phenyl-indole-2-carboxylic acid (4-nitrobenzylidene)-hydrazide was found at 490 nm. After the 2-4 h incubation, the samples were read for absorbance as above (ATest). […]

With `Cc1ccc2[nH]c(C(=O)NN=Cc3ccc(N(C)C)cc3)c(-c3ccccc3)c2c1` [Example 14, 5-Methyl-3-phenyl-indole-2-carboxylic Acid (4-Dimethylaminobenzylidene)-hydrazide], the “Caspase activity Ratio (net RFU of test compound to control)” value (“Caspase activity Ratio” for short) is recorded as 3.5 in the test with T-47D [1] and 4.1 in the test with ZR-75-1. For the same compound, the EC50 (as a rule, the concentration giving half of the maximal effect) was determined as 2.4 µM in the test with T-47D [1] and 0.83 µM in the test on ZR-75-1.
The matching figures for `Cc1c(C(=O)NN=Cc2ccc(N(C)C)cc2)[nH]c2ccc(Cl)cc12` [Example 3, 5-Chloro-3-methyl-indole-2-carboxylic Acid (4-Dimethylaminobenzylidene)-hydrazide]: 6.0, 7.2, 0.939 µM and 0.449 µM.
The matching figures for `Cc1c(C(=O)NN=Cc2ccc(Cl)cc2)[nH]c2ccc(Cl)cc12` [Example 21, 5-Chloro-3-methyl-indole-2-carboxylic Acid (4-Chlorobenzylidene)-hydrazide]: 4.2, 3.5, 3.65 µM and 2.77 µM.
With `O=C(NN=Cc1ccc([N+](=O)[O-])cc1)c1[nH]c2ccc(Cl)cc2c1-c1ccccc1` [Compound B, 5-chloro-3-phenyl-indole-2-carboxylic acid (4-nitrobenzylidene)-hydrazide], in the test with HeLa cells (48 hr treatment), the “Increase in potency in clonogenic survival assay versus Compound A” value was 10 fold. For the same compound, the IC50 – broadly, the concentration needed to halve the response being measured – with HeLa cells (48 hr treatment, read-out: IC50 of colony forming ability) is roughly 0.3 µM; in the test on HeLa cells (48 h treatment, FIG. 4 legend, read-out: IC50 of colony formation), roughly 0.3 µM. The entries for the “Caspase activity Ratio” value with T-47D [1] and in the test with ZR-75-1 were 3 and 2.9, respectively. In addition, the EC50 with T-47D [1] amounted to 0.501 µM; in the test on ZR-75-1, 0.276 µM. The GI50 in the test on T-47D [2] stood at 0.1 µM.
Regarding `Cc1c(C(=O)NN=Cc2ccccc2)[nH]c2ccc(Cl)cc12` [Example 2, 5-Chloro-3-methyl-indole-2-carboxylic Acid (Benzylidene)-hydrazide], in the test with T-47D [1], the “Caspase activity Ratio” value came out at 5.1 and the EC50 came out at 4.28 µM. Further, in the test on ZR-75-1, the EC50 was determined as 1.49 µM and the “Caspase activity Ratio” value is on record as 4.1.
The matching figures for `Cc1ccc(C=NNC(=O)c2[nH]c3ccc(C)cc3c2-c2ccccc2)cc1` [Example 13, 5-Methyl-3-phenyl-indole-2-carboxylic Acid (4-Methylbenzylidene)-hydrazide]: 3.1, 0.3 µM, 0.1 µM and 7.6.
Turning to `Cc1ccc(C=NNC(=O)c2[nH]c3ccc(Cl)cc3c2C)cc1` [Example 1, 5-Chloro-3-methyl-indole-2-carboxylic Acid (4-Methylbenzylidene)-hydrazide], in the test with T-47D [1], the “Caspase activity Ratio” value is listed as 3.7 and the EC50 is 0.253 µM. For the same compound, in the test on ZR-75-1, the EC50 came to 0.187 µM and the “Caspase activity Ratio” value was found to be 2.6.
